This is an account of results in patent US20260042764A1, “COMPOSITIONS AND METHODS FOR INHIBITION OF KRAS” (TheRas, Inc., priority 2022, published 2026).

Usually IC50 stands for the concentration at which inhibition is half-maximal.

In assay [1] the target is T1, Avi-KRAS G12D (1-169) GppNHp/RAF1 RBD-3xFLAG (52-151) (Homo sapiens, UniProt P01116, G12D).
T1 construct: Avi-KRAS G12D (1-169)
As to the kind of experiment: Raf1-KRAS G12D-GppNHP disruption HTRF assay (Biological Example 1). The format is binding. The following applies: KRAS G12D, GppNHp-loaded. A digest of the protocol: (§1)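 Read-out is HTRF signal of the KRAS–RAF1 RBD complex, reported as percentage of activity relative to DMSO (100%). Protein mix and detection reagents each incubated 1 h at room temperature with 700 rpm shaking. Buffer: 50 mM Tris pH 7.5, 100 mM NaCl, 5 mM MgCl2, 0.1% BSA, 0.01% Tween, 10% DMSO.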
For orientation: In TR-FRET formats the signal depends on donor and acceptor labels being close together.

The target of assay [2] is T2, Avi-KRAS G12R (1-169) GppNHp/RAF1 RBD-3xFLAG (52-151) (Homo sapiens, UniProt P01116, G12R).
T2 construct: Avi-KRAS G12R (1-169)
T2 sequence (P01116 1-169 isoform P01116-2 G12R): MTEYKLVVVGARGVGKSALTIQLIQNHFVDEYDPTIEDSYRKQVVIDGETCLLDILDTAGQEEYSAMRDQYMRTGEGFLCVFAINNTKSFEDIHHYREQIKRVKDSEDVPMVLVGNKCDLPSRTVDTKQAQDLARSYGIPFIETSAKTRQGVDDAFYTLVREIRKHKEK
As to the kind of experiment: Raf1-KRAS G12R-GppNHP disruption HTRF assay (Biological Example 1). Format: binding. The following applies: KRAS G12R, GppNHp-loaded. A digest of the protocol:
as §1

The test system of assay [3] is GP2d cells (KRAS G12D). Nature of the assay: Cell-based pERK HTRF assay in GP2d cell (Biological Example 2). Conditions: GP2d (KRAS G12D) cells, pERK HTRF. Put shortly: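 Phospho-ERK is measured by HTRF following a 60 min compound exposure at 0.25% DMSO, with a 9-point half-log curve topping at 1 μM or 100 nM.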
For assay [4], the system named is SW620 cells (KRAS G12V). As to the kind of experiment: Cell-based pERK HTRF assay in SW620 cell (Biological Example 4). The following applies: pERK HTRF. A digest of the protocol: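 SW620 seeded in RPMI/10% FBS, next day dosed 4 h (top 1 μM, half-log, 9 pts, 0.25% DMSO). Lysed, pERK by d2/Eu cryptate HTRF, 4–24 h RT, 615 nm read.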
Assay [5] concerns the target T3, Avi-KRAS WT (1-169) GppNHp/RAF1 RBD-3xFLAG (52-151) (Homo sapiens, UniProt P01116).
T3 construct: Avi-KRAS WT (1-169)
Nature of the assay: Raf1-KRAS WT-GppNHP disruption HTRF assay (Biological Example 1). Format: binding. Conditions: KRAS WT, GppNHp-loaded. Put shortly:
as §1

Assay [6] has as its target T4, Avi-KRAS G12V (1-169) GppNHp/RAF1 RBD-3xFLAG (52-151) (Homo sapiens, UniProt P01116, G12V).
T4 construct: Avi-KRAS G12V (1-169)
As to the kind of experiment: Raf1-KRAS G12V-GppNHP disruption HTRF assay (Biological Example 1). Format: binding. Conditions: KRAS G12V, GppNHp-loaded. A digest of the protocol: as §1

[7] abbreviates: Homo sapiens, SW-620, SW620 (KRAS G12V) cells, class symbols.

T3 sequence (P01116 1-169 isoform P01116-2): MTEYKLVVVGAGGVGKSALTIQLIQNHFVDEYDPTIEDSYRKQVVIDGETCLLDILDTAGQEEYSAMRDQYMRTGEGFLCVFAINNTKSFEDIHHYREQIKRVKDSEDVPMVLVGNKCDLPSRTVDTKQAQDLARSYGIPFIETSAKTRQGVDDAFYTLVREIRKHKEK
T1 sequence (P01116 1-169 isoform P01116-2 G12D): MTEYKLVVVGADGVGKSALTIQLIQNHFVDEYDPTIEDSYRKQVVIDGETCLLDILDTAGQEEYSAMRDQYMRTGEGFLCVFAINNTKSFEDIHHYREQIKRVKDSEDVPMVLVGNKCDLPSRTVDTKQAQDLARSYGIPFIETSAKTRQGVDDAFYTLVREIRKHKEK
T4 sequence (P01116 1-169 isoform P01116-2 G12V): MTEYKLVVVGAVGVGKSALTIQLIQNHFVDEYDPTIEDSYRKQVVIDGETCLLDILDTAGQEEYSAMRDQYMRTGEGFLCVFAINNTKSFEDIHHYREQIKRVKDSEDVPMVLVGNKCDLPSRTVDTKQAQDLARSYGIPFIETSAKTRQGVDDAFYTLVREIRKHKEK

Consider `[2H][C@]1(N(CC)c2nc(OC[C@@]34CCCN3C[C@H](F)C4)nc3c(F)c(-c4ccc(F)c5sc(N)c(C#N)c45)c(C(F)(F)F)cc23)CCN(C(=O)OC)C1` (atropisomer, axis not shown) [Compound 800], for which the IC50 was less than 100 nM in assay [1] (class symbols); less than 100 nM in assay [2] (class symbols); less than 100 nM in assay [3] (GP2d, class symbols); less than 100 nM in assay [4] (setting [7]); less than 100 nM in assay [5] (class symbols); less than 100 nM in assay [6] (class symbols).

Regarding `COC1CN(C(=O)N2CC[C@H](N(c3nc(OC[C@@]45CCCN4C[C@H](F)C5)nc4c(F)c(-c5ccc(F)c6sc(N)c(C#N)c56)c(C(F)(F)F)cc34)C3CC3)C2)C1` (atropisomer, axis not shown) [Compound 801], the IC50 in assay [1] (class symbols) was less than 100 nM; in assay [2] (class symbols) it was 100 to 1000 nM; in assay [3] (GP2d, class symbols) it was less than 100 nM; in assay [4] (setting [7]) it was less than 100 nM; in assay [5] (class symbols) it was 100 to 1000 nM; in assay [6] (class symbols) it was 100 to 1000 nM.

For the compound `CCN(c1nc(OC[C@@]23CCCN2C[C@H](F)C3)nc2c(F)c(-c3ccc(F)c4sc(N)c(C#N)c34)c(C(F)(F)F)cc12)[C@H]1CCN(C(=O)OC2CCC2)C1` (atropisomer, axis not shown) [Compound 802], the IC50 in assay [1] (class symbols) is less than 100 nM; in assay [2] (class symbols), less than 100 nM; in assay [3] (GP2d, class symbols) it was less than 100 nM; in assay [4] (setting [7]) it was less than 100 nM; in assay [5] (class symbols) it was 100 to 1000 nM; in assay [6] (class symbols), less than 100 nM.

Turning to `CCN(c1nc(OC[C@@]23CCCN2C[C@H](F)C3)nc2c(F)c(-c3ccc(F)c4sc(N)c(C#N)c34)c(C(F)(F)F)cc12)[C@H]1CCN(C(=O)c2ncc(C)o2)C1` (atropisomer, axis not shown) [Compound 803], the half-maximal inhibitory concentration (IC50) in assay [1] (class symbols) was less than 100 nM; in assay [2] (class symbols), 100 to 1000 nM; in assay [3] (GP2d, class symbols), less than 100 nM; in assay [4] (setting [7]) it was less than 100 nM; in assay [5] (class symbols), 100 to 1000 nM; in assay [6] (class symbols) it was 100 to 1000 nM.

`CCN(c1nc(OC[C@@]23CCCN2C[C@H](F)C3)nc2c(F)c(-c3ccc(F)c4sc(N)c(C#N)c34)c(C(F)(F)F)cc12)[C@H]1CCN(C(=O)[C@H]2CCO2)[C@@H]1C` (atropisomer, axis not shown) [Compound 805]: the IC50 is less than 100 nM in assay [1] (class symbols); less than 100 nM in assay [2] (class symbols); less than 100 nM in assay [3] (GP2d, class symbols); less than 100 nM in assay [4] (setting [7]); less than 100 nM in assay [5] (class symbols); less than 100 nM in assay [6] (class symbols).

In the case of `CCN(c1nc(OC[C@@]23CCCN2C[C@H](F)C3)nc2c(F)c(-c3ccc(F)c4sc(N)c(C#N)c34)c(C(F)(F)F)cc12)[C@H]1CCN(C(=O)[C@@H](C)OC)[C@@H]1C` (atropisomer, axis not shown) [Compound 806], the IC50 was less than 100 nM in assay [1] (class symbols); less than 100 nM in assay [2] (class symbols); less than 100 nM in assay [3] (GP2d, class symbols); less than 100 nM in assay [4] (setting [7]); less than 100 nM in assay [5] (class symbols); 100 to 1000 nM in assay [6] (class symbols).

Consider `CCN(c1nc(OC[C@@]23CCCN2C[C@H](F)C3)nc2c(F)c(-c3ccc(F)c4sc(N)c(C#N)c34)c(C(F)(F)F)cc12)[C@@H]1CCN(C(=O)[C@@H](C)OC)[C@@H]1C` (atropisomer, axis not shown) [Compound 807], for which the IC50 was less than 100 nM in assay [1] (class symbols); less than 100 nM in assay [2] (class symbols); less than 100 nM in assay [3] (GP2d, class symbols); less than 100 nM in assay [4] (setting [7]); less than 100 nM in assay [5] (class symbols); less than 100 nM in assay [6] (class symbols).

As to `CCN(c1nc(OC[C@@]23CCCN2C[C@H](F)C3)nc2c(F)c(-c3ccc(F)c4sc(N)c(C#N)c34)c(C(F)(F)F)cc12)[C@@H]1CCN(C(=O)[C@@H]2CC2(F)F)[C@@H]1C` (atropisomer, axis not shown) [Compound 808], the IC50 is less than 100 nM in assay [1] (class symbols); less than 100 nM in assay [2] (class symbols); less than 100 nM in assay [3] (GP2d, class symbols); less than 100 nM in assay [4] (setting [7]); less than 100 nM in assay [5] (class symbols); less than 100 nM in assay [6] (class symbols).

For the compound `CCN(c1nc(OC[C@@]23CCCN2C[C@H](F)C3)nc2c(F)c(-c3ccc(F)c4sc(N)c(C#N)c34)c(C(F)(F)F)cc12)[C@H]1CCN(C(=O)OC2COC2)[C@@H]1C` (atropisomer, axis not shown) [Compound 809], the IC50 is less than 100 nM in assay [1] (class symbols); less than 100 nM in assay [2] (class symbols); less than 100 nM in assay [3] (GP2d, class symbols); less than 100 nM in assay [4] (setting [7]); less than 100 nM in assay [5] (class symbols); less than 100 nM in assay [6] (class symbols).

As to `CCN(c1nc(OC[C@@]23CCCN2C[C@H](F)C3)nc2c(F)c(-c3ccc(F)c4sc(N)c(C#N)c34)c(C(F)(F)F)cc12)[C@H]1CCN(C(=O)O[C@H]2CCOC2)[C@@H]1C` (atropisomer, axis not shown) [Compound 810], the IC50 in assay [1] (class symbols) was less than 100 nM; in assay [2] (class symbols), less than 100 nM; in assay [3] (GP2d, class symbols) it was less than 100 nM; in assay [4] (setting [7]), less than 100 nM; in assay [5] (class symbols), less than 100 nM; in assay [6] (class symbols) it was less than 100 nM.

On to `CO[C@@H](C)C(=O)N1CC[C@H](N(c2nc(OC[C@@]34CCCN3C[C@H](F)C4)nc3c(F)c(-c4ccc(F)c5sc(N)c(C#N)c45)c(C(F)(F)F)cc23)C2CC2)C1` (atropisomer, axis not shown) [Compound 811], for which the IC50 in assay [1] (class symbols) was less than 100 nM; in assay [2] (class symbols), 100 to 1000 nM; in assay [3] (GP2d, class symbols), less than 100 nM; in assay [4] (setting [7]), less than 100 nM; in assay [5] (class symbols) it was 100 to 1000 nM; in assay [6] (class symbols) it was 100 to 1000 nM.

On to `N#Cc1c(N)sc2c(F)ccc(-c3c(C(F)(F)F)cc4c(N(C5CC5)[C@H]5CCN(C(=O)[C@H]6CCO6)C5)nc(OC[C@@]56CCCN5C[C@H](F)C6)nc4c3F)c12` (atropisomer, axis not shown) [Compound 812], for which the IC50 is less than 100 nM in assay [1] (class symbols); 100 to 1000 nM in assay [2] (class symbols); less than 100 nM in assay [3] (GP2d, class symbols); less than 100 nM in assay [4] (setting [7]); 100 to 1000 nM in assay [5] (class symbols); 100 to 1000 nM in assay [6] (class symbols).

Regarding `N#Cc1c(N)sc2c(F)ccc(-c3c(C(F)(F)F)cc4c(N(C5CC5)[C@H]5CCN(C(=O)N6CC(F)C6)C5)nc(OC[C@@]56CCCN5C[C@H](F)C6)nc4c3F)c12` (atropisomer, axis not shown) [Compound 813], the IC50 in assay [1] (class symbols) was less than 100 nM; in assay [2] (class symbols), 100 to 1000 nM; in assay [3] (GP2d, class symbols), less than 100 nM; in assay [4] (setting [7]), less than 100 nM; in assay [5] (class symbols) it was 100 to 1000 nM; in assay [6] (class symbols), 100 to 1000 nM.

For `CC(C)C(=O)N1CC[C@H](N(CCF)c2nc(OC[C@@]34CCCN3C[C@H](F)C4)nc3c(F)c(-c4ccc(F)c5sc(N)c(C#N)c45)c(C(F)(F)F)cc23)C1` (atropisomer, axis not shown) [Compound 814], the IC50 in assay [1] (class symbols) was less than 100 nM; in assay [2] (class symbols) it was less than 100 nM; in assay [3] (GP2d, class symbols), less than 100 nM; in assay [4] (setting [7]) it was less than 100 nM; in assay [5] (class symbols) it was 100 to 1000 nM; in assay [6] (class symbols), 100 to 1000 nM.

`CCN(c1nc(OC[C@@]23CCCN2C[C@H](F)C3)nc2c(F)c(-c3ccc(F)c4sc(N)c(C#N)c34)c(C(F)(F)F)cc12)[C@H]1CC(=O)N(CCOC)C1` (atropisomer, axis not shown) [Compound 815]: the IC50 in assay [1] (class symbols) was less than 100 nM; in assay [2] (class symbols), less than 100 nM; in assay [3] (GP2d, class symbols), less than 100 nM; in assay [4] (setting [7]), less than 100 nM; in assay [5] (class symbols), less than 100 nM; in assay [6] (class symbols), less than 100 nM.

As to `CC(=O)N1CC[C@@H](N(C)c2nc(OC[C@@]34CCCN3C[C@H](F)C4)nc3c(F)c(-c4ccc(F)c5sc(N)c(C#N)c45)c(C(F)(F)F)cc23)[C@H]1C` (single isomer, unassigned) [Compound 192], the IC50 in assay [1] (Table 11) was more than 10000 nM; in assay [2] (Table 11), more than 10000 nM; in assay [3], more than 1000 nM; in assay [4] (SW620 (KRAS G12V) cells), more than 1000 nM; in assay [5] (Table 11) it was more than 10000 nM; in assay [6] (Table 11), more than 10000 nM.

As to `CC(=O)N1CC[C@H](N(C)c2nc(OC[C@@]34CCCN3C[C@H](F)C4)nc3c(F)c(-c4ccc(F)c5sc(N)c(C#N)c45)c(C(F)(F)F)cc23)[C@@H]1C` (single isomer, unassigned) [Compound 194], the IC50 was more than 10000 nM in assay [1] (Table 11); more than 10000 nM in assay [2] (Table 11); more than 1000 nM in assay [3]; more than 1000 nM in assay [4] (SW620 (KRAS G12V) cells); more than 10000 nM in assay [5] (Table 11); more than 10000 nM in assay [6] (Table 11).
